One block for each molecule: values may come before it.
How the values were obtained:
[1] = biological target: IGF-1R (Homo sapiens (Human), UniProt P08069); experiment: Enzyme selectivity test (ELISA), IGF-1R; assay type: biochemical
Protocol: (§1) 1) Enzyme reaction substrate Poly(Glu, Tyr) 4:1 was diluted to 20 μg/mL with potassium-free PBS (10 mM sodium phosphate buffer, 150 mM NaCl, pH 7.2-7.4), and the microtiter plate was coated with 125 μL/well and placed at 37° C. for 12-16 hours of reaction. The liquid in the well was discard. The plate was washed three times with T-PBS (potassium-free PBS containing 0.1% Tween-20, 200 μL/well), 5 minutes each time. The ELISA plate was dried in an oven at 37° C. for 1 to 2 hours.
(§2) 2) Reaction buffer (50 mM HEPES pH 7.4, 50 mM MgCl2, 0.5 mM MnCl2, 0.2 mM Na3VO4, 1 mM DTT) diluted ATP solution (49 μL) was added to each well, 1 μL of the compound to be tested was added to each well, and then 50 μL of DDR2 kinase domain recombinant protein diluted in the reaction buffer was added to start the reaction. Two control wells without ATP were set in each experiment. The plate placed on a shaker (100 rpm) at 37° C. for 1 hour of reaction. The liquid in the well was discarded and the plate was washed three times with T-PBS.
(§3) 3) Antibody PY99 dilution solution (the antibody was diluted 1:500 with T-PBS containing BSA 5 mg/mL) was added at 100 μL/well, and shaken on a shaker at 37° C. for 0.5 hour of reaction. The liquid in the well was discarded and the plate was washed three times with T-PBS.
(§4) 4) Horseradish peroxidase labeled goat anti-murine secondary antibody dilution solution (the antibody is diluted 1:2000 with T-PBS containing BSA 5 mg/ml) was added at 100 μL/well, and shaken on a shaker at 37° C. for 0.5 hour of reaction. The liquid in the well was discarded and the plate was washed three times with T-PBS.
(§5) 5) 2 mg/ml of OPD color developing solution [diluted with 0.1 M citric acid-sodium citrate buffer (pH=5.4) containing 0.03% H2O2] was added at 100 μL/well and reacted for 1 to 10 minutes at 25° C. in the dark.
(§6) 6) 2M H2SO4 was added at 50 μL/well to stop the reaction, and a tunable wavelength microplate reader VERSAmax was used for reading at a wavelength of 490 nm.
(§7) The IC50 value was obtained by four-parameter regression using the software that came with the microplate reader. […]

[2] = biological target: Flt-3 (Homo sapiens (Human), UniProt P36888); experiment: Enzyme selectivity test (ELISA), Flt-3; assay type: biochemical
Protocol: as §1, §2, §3, §4, §5, §6, §7

[3] = biological target: KDR (Homo sapiens (Human), UniProt P35968); experiment: Enzyme selectivity test (ELISA), KDR; assay type: biochemical
Sequence of KDR (P35968 20-1356, species assumed): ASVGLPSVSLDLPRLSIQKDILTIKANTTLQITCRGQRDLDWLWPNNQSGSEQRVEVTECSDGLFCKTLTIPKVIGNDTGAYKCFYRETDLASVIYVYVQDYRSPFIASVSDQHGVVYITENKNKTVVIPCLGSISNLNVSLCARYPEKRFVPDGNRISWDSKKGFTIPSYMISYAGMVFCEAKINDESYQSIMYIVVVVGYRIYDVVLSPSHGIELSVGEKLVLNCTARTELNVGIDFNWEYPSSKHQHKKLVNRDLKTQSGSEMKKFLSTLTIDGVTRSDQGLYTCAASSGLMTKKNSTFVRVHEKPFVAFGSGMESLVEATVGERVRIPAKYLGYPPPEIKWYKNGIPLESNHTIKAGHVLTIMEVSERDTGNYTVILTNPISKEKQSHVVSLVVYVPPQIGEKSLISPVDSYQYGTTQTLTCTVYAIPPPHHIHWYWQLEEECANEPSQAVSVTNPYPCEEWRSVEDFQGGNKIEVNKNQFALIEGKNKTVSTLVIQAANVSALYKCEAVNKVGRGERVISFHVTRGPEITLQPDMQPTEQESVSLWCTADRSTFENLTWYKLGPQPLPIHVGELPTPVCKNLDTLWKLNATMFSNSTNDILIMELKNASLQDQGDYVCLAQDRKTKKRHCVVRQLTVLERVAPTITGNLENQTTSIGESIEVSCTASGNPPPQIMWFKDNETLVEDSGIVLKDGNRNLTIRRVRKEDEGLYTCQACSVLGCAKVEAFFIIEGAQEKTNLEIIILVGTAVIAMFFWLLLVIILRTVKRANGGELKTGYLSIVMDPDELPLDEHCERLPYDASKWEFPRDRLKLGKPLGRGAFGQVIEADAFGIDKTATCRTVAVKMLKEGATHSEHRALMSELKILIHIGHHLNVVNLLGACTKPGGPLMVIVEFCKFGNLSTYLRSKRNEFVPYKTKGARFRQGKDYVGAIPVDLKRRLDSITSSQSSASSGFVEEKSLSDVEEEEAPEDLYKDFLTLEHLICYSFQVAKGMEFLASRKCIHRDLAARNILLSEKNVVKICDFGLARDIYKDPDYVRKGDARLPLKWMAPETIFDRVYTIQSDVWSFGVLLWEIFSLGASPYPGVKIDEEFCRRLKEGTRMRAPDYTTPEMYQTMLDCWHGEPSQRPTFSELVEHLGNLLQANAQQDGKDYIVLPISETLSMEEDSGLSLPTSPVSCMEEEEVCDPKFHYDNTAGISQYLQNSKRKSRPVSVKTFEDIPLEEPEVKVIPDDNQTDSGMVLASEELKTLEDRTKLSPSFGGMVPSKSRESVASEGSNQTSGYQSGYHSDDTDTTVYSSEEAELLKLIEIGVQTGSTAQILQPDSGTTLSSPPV
Protocol: as §1, §2, §3, §4, §5, §6, §7

[4] = biological target: C-Kit (Homo sapiens (Human), UniProt P10721); experiment: Enzyme selectivity test (ELISA), C-Kit; assay type: biochemical
Protocol: as §1, §2, §3, §4, §5, §6, §7

[5] = biological target: P38 MAPK; experiment: Enzyme selectivity test (ELISA), P38 MAPK; assay type: biochemical
Protocol: as §1
as §2, with “T-PBS. […]” for “T-PBS.”
as §6, §7

[6] = biological target: FGFR-3 (Homo sapiens (Human), UniProt P22607); experiment: Enzyme selectivity test (ELISA), FGFR-3; assay type: biochemical
Sequence of FGFR-3 (P22607 23-806, species assumed): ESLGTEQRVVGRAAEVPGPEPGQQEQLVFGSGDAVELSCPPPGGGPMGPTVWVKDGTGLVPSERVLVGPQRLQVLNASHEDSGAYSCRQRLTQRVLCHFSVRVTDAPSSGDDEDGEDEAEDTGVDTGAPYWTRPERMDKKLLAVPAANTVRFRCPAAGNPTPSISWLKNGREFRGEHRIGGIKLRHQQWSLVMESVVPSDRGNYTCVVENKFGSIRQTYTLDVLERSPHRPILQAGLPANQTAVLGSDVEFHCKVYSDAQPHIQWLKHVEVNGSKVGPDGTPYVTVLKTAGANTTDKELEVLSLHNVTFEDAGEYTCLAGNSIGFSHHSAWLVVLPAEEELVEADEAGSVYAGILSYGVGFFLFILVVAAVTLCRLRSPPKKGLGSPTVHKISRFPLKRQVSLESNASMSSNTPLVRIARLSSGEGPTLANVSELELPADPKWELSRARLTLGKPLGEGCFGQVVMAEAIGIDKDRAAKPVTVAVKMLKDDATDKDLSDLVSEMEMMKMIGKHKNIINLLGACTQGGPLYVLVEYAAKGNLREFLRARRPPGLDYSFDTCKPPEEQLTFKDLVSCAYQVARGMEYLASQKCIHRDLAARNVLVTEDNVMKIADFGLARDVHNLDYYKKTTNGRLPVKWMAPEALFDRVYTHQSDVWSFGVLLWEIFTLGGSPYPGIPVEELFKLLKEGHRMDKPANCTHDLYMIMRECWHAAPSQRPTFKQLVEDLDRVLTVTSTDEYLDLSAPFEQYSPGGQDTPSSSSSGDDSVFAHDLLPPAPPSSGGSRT
Protocol: as §1
as §2, with “T-PBS. […]” for “T-PBS.”
as §6, §7

[7] = biological target: FGFR-2 (Homo sapiens (Human), UniProt P21802); experiment: Enzyme selectivity test (ELISA), FGFR-2; assay type: biochemical
Protocol: as §1
as §2, with “T-PBS. […]” for “T-PBS.”
as §6, §7

[8] = biological target: PDGFR-β (Homo sapiens (Human), UniProt P09619); experiment: Enzyme selectivity test (ELISA), PDGFR-β; assay type: biochemical
Protocol: as §1, §2, §3, §4, §5, §6, §7

[9] = biological target: PDGFR-α (Homo sapiens (Human), UniProt P16234); experiment: Enzyme selectivity test (ELISA), PDGFR-α; assay type: biochemical
Sequence of PDGFR-α (P16234 24-1089, species assumed): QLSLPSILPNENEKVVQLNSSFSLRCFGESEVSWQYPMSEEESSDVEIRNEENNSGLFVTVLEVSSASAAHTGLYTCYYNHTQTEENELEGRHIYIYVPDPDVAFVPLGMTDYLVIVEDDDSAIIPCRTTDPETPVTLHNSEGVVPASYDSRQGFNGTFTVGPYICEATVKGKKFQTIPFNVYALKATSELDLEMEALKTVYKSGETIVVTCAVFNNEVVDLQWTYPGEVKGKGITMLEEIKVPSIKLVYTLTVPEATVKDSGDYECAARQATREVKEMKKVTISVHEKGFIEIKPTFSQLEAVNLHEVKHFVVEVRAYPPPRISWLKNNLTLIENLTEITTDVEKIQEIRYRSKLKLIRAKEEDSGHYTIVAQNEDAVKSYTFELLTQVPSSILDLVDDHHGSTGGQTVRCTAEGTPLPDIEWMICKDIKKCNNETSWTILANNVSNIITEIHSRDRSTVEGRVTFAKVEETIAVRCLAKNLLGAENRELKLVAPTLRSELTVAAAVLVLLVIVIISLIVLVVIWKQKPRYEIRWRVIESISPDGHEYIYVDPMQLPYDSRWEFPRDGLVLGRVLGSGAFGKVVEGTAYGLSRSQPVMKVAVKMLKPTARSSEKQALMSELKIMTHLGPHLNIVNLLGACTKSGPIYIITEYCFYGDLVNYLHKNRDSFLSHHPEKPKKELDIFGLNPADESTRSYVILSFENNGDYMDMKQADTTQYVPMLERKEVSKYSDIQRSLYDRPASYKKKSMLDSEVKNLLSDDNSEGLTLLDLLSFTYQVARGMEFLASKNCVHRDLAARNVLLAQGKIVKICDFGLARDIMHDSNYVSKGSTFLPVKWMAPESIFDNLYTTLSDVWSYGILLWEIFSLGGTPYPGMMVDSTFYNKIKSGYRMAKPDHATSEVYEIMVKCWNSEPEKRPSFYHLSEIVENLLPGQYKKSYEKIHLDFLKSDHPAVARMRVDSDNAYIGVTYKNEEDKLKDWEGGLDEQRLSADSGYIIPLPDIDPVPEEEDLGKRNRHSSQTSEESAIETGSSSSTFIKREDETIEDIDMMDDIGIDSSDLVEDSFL
Protocol: as §1, §2, §3, §4, §5, §6, §7

[10] = biological target: FGFR-4 (Homo sapiens (Human), UniProt P22455); experiment: Enzyme selectivity test (ELISA), FGFR-4; assay type: biochemical
Sequence of FGFR-4 (P22455 22-802, species assumed): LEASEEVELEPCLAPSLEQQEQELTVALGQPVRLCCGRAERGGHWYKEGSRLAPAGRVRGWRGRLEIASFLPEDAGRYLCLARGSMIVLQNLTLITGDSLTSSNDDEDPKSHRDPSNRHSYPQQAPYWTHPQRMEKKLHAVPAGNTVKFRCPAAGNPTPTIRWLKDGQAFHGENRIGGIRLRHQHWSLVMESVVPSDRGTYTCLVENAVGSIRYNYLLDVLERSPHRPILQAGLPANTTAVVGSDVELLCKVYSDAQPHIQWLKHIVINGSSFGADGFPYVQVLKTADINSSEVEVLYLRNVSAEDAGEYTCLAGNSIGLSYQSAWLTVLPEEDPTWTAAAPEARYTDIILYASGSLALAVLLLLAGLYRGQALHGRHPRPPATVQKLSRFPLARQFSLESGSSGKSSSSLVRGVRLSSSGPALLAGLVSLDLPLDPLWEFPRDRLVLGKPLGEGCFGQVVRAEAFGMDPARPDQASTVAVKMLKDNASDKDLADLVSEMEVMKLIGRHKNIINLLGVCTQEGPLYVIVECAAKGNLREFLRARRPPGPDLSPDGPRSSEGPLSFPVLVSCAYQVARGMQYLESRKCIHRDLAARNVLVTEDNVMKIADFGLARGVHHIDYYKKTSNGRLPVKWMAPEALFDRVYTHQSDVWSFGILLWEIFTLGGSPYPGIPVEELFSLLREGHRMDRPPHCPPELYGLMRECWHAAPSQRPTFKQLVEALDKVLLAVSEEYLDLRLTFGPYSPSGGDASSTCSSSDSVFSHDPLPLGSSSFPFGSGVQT
Protocol: as §1
as §2, with “T-PBS. […]” for “T-PBS.”
as §6, §7

[11] = biological target: ALK (Homo sapiens (Human), UniProt Q9UM73); experiment: Enzyme selectivity test (ELISA), ALK; assay type: biochemical
Protocol: as §1, §2, §3, §4, §5, §6, §7

[12] = test system: kinases; experiment: Enzyme selectivity test, kinase panel overall; assay type: biochemical; conditions: kinase panel of Table 5
Source text: Except that the enzyme was different, other test methods and conditions were the same as the DDR2 enzyme activity test method in Effect example 1.

[13] = biological target: RET (Homo sapiens (Human), UniProt P07949); experiment: Enzyme selectivity test (ELISA), RET; assay type: biochemical
Protocol: as §1, §2, §3, §4, §5, §6, §7

[14] = biological target: EGFR (Homo sapiens (Human), UniProt P00533); experiment: Enzyme selectivity test (ELISA), EGFR; assay type: biochemical
Protocol: as §1, §2, §3, §4, §5, §6, §7

[15] = biological target: AXL (Homo sapiens (Human), UniProt P30530); experiment: Enzyme selectivity test (ELISA), AXL; assay type: biochemical
Protocol: as §1, §2, §3, §4, §5, §6, §7

[16] = biological target: VEGFR-1 (Homo sapiens (Human), UniProt P17948); experiment: Enzyme selectivity test (ELISA), VEGFR-1; assay type: biochemical
Protocol: as §1, §2, §3, §4, §5, §6, §7

[17] = biological target: Abl (Homo sapiens (Human), UniProt P00519); experiment: Enzyme selectivity test (ELISA), Abl; assay type: biochemical
Protocol: as §1, §2, §3, §4, §5, §6, §7

[18] = biological target: DDR2 (Homo sapiens (Human), UniProt Q16832); experiment: DDR2 enzyme activity test (ELISA); assay type: biochemical; conditions: read-out: DDR2 IC50
Protocol: The optical rotation and the inhibitory activity against DDR2 enzyme of the compounds S11-A and S11-B obtained by the resolution in Example 12, and the chirally synthesized compounds S11-A′ and S11-B′ in Example 13 were tested (referred to the operation in Effect example 1), and the results are shown in Table 3 below:
Detection method: Enzyme-linked immunosorbent assay (ELISA)
Test receptor tyrosine kinase: DDR2
The kinase used in the experiment was obtained by our laboratory using the insect baculovirus expression system to express and purify the recombinant protein containing the protein kinase region; polyglutamic acid-tyrosine peptide segment [Poly(Glu, Tyr) 4:1] and sodium vanadate were purchased from Sigma; the anti-phosphorylated monoclonal antibody PY99 was purchased from Santa Cruz; horseradish peroxidase labeled goat anti-murine secondary antibody was purchased from Calbiochem; ATP and OPD were purchased from Sangon Biotech (Shanghai) Co., Ltd.; the remaining reagents were purchased from Sinopharm Chemical Reagent Co., Ltd. The reaction ELISA plate (#2592) was purchased from Corning. The full-wavelength microplate reader for experiment reading was a product of Molecular Device, model: SpectraMax 190; the experimental water was distilled water produced by Sinopharm Group.
The compound was centrifuged at 12,000 g for 5 min, and DMSO was added to prepare a 10^-2M stock solution, which was vortexed evenly, then sonicated for 10 min and stored at −40° C. for later use. During the test, the compound was diluted with DMSO from the stock solution to 100 times the test concentration (the DMSO concentration in the system was 1%).
as §1, §2, §3, §4, §5, §6
The IC50 value was obtained by four-parameter regression using the software that came with the microplate reader.

[19] = biological target: ErbB2 (Homo sapiens (Human), UniProt P04626); experiment: Enzyme selectivity test (ELISA), ErbB2; assay type: biochemical
Protocol: as §1, §2, §3, §4, §5, §6, §7

[20] = biological target: ErbB4 (Homo sapiens (Human), UniProt Q15303); experiment: Enzyme selectivity test (ELISA), ErbB4; assay type: biochemical
Protocol: as §1, §2, §3, §4, §5, §6, §7

[21] = biological target: Src (Homo sapiens (Human), UniProt P12931); experiment: Enzyme selectivity test (ELISA), Src; assay type: biochemical
Protocol: as §1, §2, §3, §4, §5, §6, §7

[22] = biological target: Met (Homo sapiens (Human), UniProt P08581); experiment: Enzyme selectivity test (ELISA), Met; assay type: biochemical
Protocol: as §1, §2, §3, §4, §5, §6, §7

[23] = biological target: EPH-A2 (Homo sapiens (Human), UniProt P29317); experiment: Enzyme selectivity test (ELISA), EPH-A2; assay type: biochemical
Sequence of EPH-A2 (P29317 24-976, species assumed): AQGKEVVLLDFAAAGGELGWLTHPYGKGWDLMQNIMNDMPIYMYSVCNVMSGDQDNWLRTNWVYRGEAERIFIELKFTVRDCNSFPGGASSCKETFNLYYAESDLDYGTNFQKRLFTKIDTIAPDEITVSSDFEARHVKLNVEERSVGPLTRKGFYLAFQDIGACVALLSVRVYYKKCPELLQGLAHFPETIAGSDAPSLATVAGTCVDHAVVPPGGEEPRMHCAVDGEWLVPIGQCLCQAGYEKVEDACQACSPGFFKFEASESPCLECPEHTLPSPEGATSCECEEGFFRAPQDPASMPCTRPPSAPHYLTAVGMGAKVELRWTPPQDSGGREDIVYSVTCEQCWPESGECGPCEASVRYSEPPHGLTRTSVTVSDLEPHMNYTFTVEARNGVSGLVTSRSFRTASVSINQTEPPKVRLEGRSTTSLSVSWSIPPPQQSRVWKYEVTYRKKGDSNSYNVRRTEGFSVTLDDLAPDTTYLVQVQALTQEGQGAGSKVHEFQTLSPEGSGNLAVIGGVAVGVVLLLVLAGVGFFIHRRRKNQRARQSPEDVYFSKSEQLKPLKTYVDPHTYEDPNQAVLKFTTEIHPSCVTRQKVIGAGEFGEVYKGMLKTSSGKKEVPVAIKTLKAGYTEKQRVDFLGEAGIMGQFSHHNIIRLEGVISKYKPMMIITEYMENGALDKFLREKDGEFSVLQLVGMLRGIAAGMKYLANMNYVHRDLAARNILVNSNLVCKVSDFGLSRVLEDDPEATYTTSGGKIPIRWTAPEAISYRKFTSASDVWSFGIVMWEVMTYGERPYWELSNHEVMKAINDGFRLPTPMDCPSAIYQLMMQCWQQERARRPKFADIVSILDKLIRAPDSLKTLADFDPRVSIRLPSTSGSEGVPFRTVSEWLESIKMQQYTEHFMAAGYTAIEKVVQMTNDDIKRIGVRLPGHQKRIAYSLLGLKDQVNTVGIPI
Protocol: as §1, §2, §3, §4, §5, §6, §7

[24] = biological target: FGFR-1 (Homo sapiens (Human), UniProt P11362); experiment: Enzyme selectivity test (ELISA), FGFR-1; assay type: biochemical
Protocol: as §1, §2, §3, §4, §5, §6, §7

[25] = test system: mouse model of BLM-induced lung injury; experiment: Histopathological evaluation of lung sections, H&E staining; assay type: in vivo; conditions: mice
Protocol: Experimental objective: This group of experiments aimed to investigate the therapeutic potential of the compound S15 in acute lung injury and inflammation induced by bleomycin (BLM).
Experimental grouping (8 mice per group):
Model group (BLM): the mice received BLM (1.7 U/kg) via intratracheal instillation;
Compound S15 group (S15): this group was divided into three dose groups, namely 30, 60 and 90 mg/kg;
Positive control group (Nintedanib): Nintedanib administration group;
Negative control group (Control): only saline was used.
1) Material acquisition: The fresh tissue was fixed in 4% paraformaldehyde for more than 24 hours. The tissue was removed from the fixative solution and trim the tissue at the target site. The trimmed tissue was marked and placed in the dehydration box for later use.
2) Dehydration: The dehydration box was put in the dehydrator and different concentration gradients of ethanol was used sequentially for dehydration. 75% ethanol (4 hours), 85% ethanol (2 hours), 90% ethanol (2 hours), 95% ethanol (1 hour), absolute ethanol I (30 minutes), absolute ethanol II (30 minutes), alcohol benzene (5-10 minutes), xylene I (5-10 minutes), xylene II (5-10 minutes), wax I (1 hour), wax II (1 hour), wax III (1 hour).
3) Embedment: The wax melted at high temperature was put into the embedding frame; before the wax was cooled and solidified, the tissue was taken out of the dehydration box, put into the embedding frame according to the requirements of the embedding surface, marked and cooled at −20° C. After completely solidified, the wax block was removed from the embedding frame and trimmed.
4) Section: The trimmed wax block was put on a paraffin microtome for sectioning. The section thickness was about 4 μm. The sections were floated on warm water at 40° C. of the flotation workstation and flatten. A glass slide was used to lift the tissue from the warm water, and put into a 60° C. oven for dryness. After the water was dried and the wax melted, the glass slide was taken out and stored at ambient temperature for later use. […]

[26] = test system: lung fibroblast cell line MRC-5; experiment: Cytotoxic activity test (MTS), MRC-5; assay type: cell-based, human; conditions: 5 μM
Protocol: (§8) Experimental objective: The cytotoxic activity of compound S15 on bronchial epithelial cell line Beas-2B and lung fibroblast cell line MRC-5 was tested.
(§9) 1) The human bronchial epithelial cell line Beas-2B and the human embryonic lung fibroblast cell line MRC-5 were collected, and inoculated at a certain density (about 5000-10000 cells) on a 96-well plate (the edge wells were filled with sterile water or PBS). A control was set on each plate (100 μL of culture medium was added);
(§10) 2) The plate was incubated overnight at 37° C., 5% CO2. The plate was turned upside down and observed under the microscope.
(§11) 3) The solutions of different concentrations of the compounds to be tested were added to each well, and a control well (culture medium and MTS solution with cells but no drug) and a blank well (without cells, medium and MTS solution) were set, 3 to 5 repetition wells were set for each group. Incubation was performed at 37° C. for 48-72 hours.
(§12) 4) 10 μL/well of MTS/PMS (20:1, Promega Corp) solution was added to each well containing 100 μL of culture medium, and then the plate was gently shaken. The plate was incubated at 37° C. for 2 to 4 hours.
(§13) 5) M5 microplate reader (Molecular Device, USA) was used to measure the absorbance of the solution at 490 nm. […]

[27] = test system: bronchial epithelial cell line Beas-2B; experiment: Cytotoxic activity test (MTS), Beas-2B; assay type: cell-based, human; conditions: 5 μM
Protocol: as §8, §9, §10, §11, §12, §13

IC50 [1]: > 1000 nM
IC50 [2]: > 1000 nM
IC50 [3]: > 1000 nM
IC50 [4]: > 1000 nM
IC50 [5]: > 1000 nM
IC50 [6]: > 1000 nM
IC50 [7]: > 1000 nM
IC50 [8]: > 1000 nM
IC50 [9]: > 1000 nM
IC50 [10]: > 1000 nM
IC50 [11]: > 1000 nM
selectivity for kinases [12]: good selectivity
IC50 [13]: > 1000 nM
IC50 [14]: > 1000 nM
IC50 [15]: > 1000 nM
IC50 [16]: > 1000 nM
IC50 [17]: > 1000 nM
IC50 [18]: 3.7 ± 0.2 nM
IC50 [19]: > 1000 nM
IC50 [20]: > 1000 nM
IC50 [21]: > 1000 nM
IC50 [22]: > 1000 nM
IC50 [23]: > 1000 nM
IC50 [24]: > 1000 nM
SMILES: CCC(NC(=O)c1ccc(C2CC2)c(-c2ccc3nc(Nc4cnn(C5CC5)c4)ncc3c2)c1)c1cccc(C(F)(F)F)c1 (stereo not shown) [Compound S18]

SMILES: COC(=O)c1ccc2c(c1)NC(=O)/C2=C(\Nc1ccc(N(C)C(=O)CN2CCN(C)CC2)cc1)c1ccccc1 [Nintedanib]
BLM-induced lung injury, H&E staining ([25]; Effect example 4, S15 30, 60, 90 mg/kg, Nintedanib 30 mg/kg, oral qd 12 days): improved significantly
BLM-induced lung injury, H&E staining ([25]; Effect example 7, 30 mg/kg oral qd 12 days): significantly improved
cytotoxic activity on MRC-5 [26]: significant cytotoxicity
cytotoxic activity on Beas-2B [27]: significant cytotoxicity

Reference: patent US11655239B2 (SHANGHAI INSTITUTE OF MATERIAL MEDICA, CHINESE ACADEMY OF …, priority 2019, dated 2023)
